Measured values reported in the NIST ThermoML archive (doi:10.1016/j.jct.2013.07.003).
± gives the expanded uncertainty stated by the source.

Tests used:
[1] = refractive index (Na D-line) (dimensionless); xn = mol fraction of the nth substance listed; details: 101 kPa, Liquid, Standard Abbe refractometry
[2] = relative permittivity at various frequencies (dimensionless); xn = mol fraction of the nth substance listed; details: 101 kPa, Liquid, Frequency=0.1 MHz, Coaxial cylinder capacitor

CC(O)CCO (stereo not given) [1,3-butanediol] + C1COCCO1
Details | refractive index, 298.2 K | refractive index, 303.2 K | refractive index, 308.2 K | refractive index, 313.2 K | refractive index, 318.2 K | relative permittivity, 298.2 K | relative permittivity, 303.2 K | relative permittivity, 308.2 K | relative permittivity, 313.2 K | relative permittivity, 318.2 K
[1], x1 = 0.103 | 1.4217 ± 0.0005 | 1.4195 ± 0.0005 | 1.4165 ± 0.0005 | 1.414 ± 0.0005 | 1.4112 ± 0.0005 | – | – | – | – | –
[1], x1 = 0.204 | 1.4235 ± 0.0005 | 1.4213 ± 0.0005 | 1.4183 ± 0.0005 | 1.4161 ± 0.0005 | 1.4136 ± 0.0005 | – | – | – | – | –
[1], x1 = 0.301 | 1.425 ± 0.0005 | 1.423 ± 0.0005 | 1.4202 ± 0.0005 | 1.418 ± 0.0005 | 1.4155 ± 0.0005 | – | – | – | – | –
[1], x1 = 0.401 | 1.4268 ± 0.0005 | 1.425 ± 0.0005 | 1.4222 ± 0.0005 | 1.4202 ± 0.0005 | 1.4177 ± 0.0005 | – | – | – | – | –
[1], x1 = 0.451 | 1.4279 ± 0.0005 | 1.4258 ± 0.0005 | 1.4233 ± 0.0005 | 1.4213 ± 0.0005 | 1.419 ± 0.0005 | – | – | – | – | –
[1], x1 = 0.5 | 1.4287 ± 0.0005 | 1.4267 ± 0.0005 | 1.4243 ± 0.0005 | 1.4222 ± 0.0005 | 1.42 ± 0.0005 | – | – | – | – | –
[1], x1 = 0.548 | 1.4296 ± 0.0005 | 1.4275 ± 0.0005 | 1.4255 ± 0.0005 | 1.423 ± 0.0005 | 1.4209 ± 0.0005 | – | – | – | – | –
[1], x1 = 0.61 | 1.431 ± 0.0005 | 1.4285 ± 0.0005 | 1.4262 ± 0.0005 | 1.4242 ± 0.0005 | 1.4221 ± 0.0005 | – | – | – | – | –
[1], x1 = 0.699 | 1.4325 ± 0.0005 | 1.4308 ± 0.0005 | 1.4285 ± 0.0005 | 1.4267 ± 0.0005 | 1.4247 ± 0.0005 | – | – | – | – | –
[1], x1 = 0.788 | 1.4342 ± 0.0005 | 1.4326 ± 0.0005 | 1.4303 ± 0.0005 | 1.4287 ± 0.0005 | 1.4269 ± 0.0005 | – | – | – | – | –
[1], x1 = 0.897 | 1.4363 ± 0.0005 | 1.4348 ± 0.0005 | 1.4333 ± 0.0005 | 1.4314 ± 0.0005 | 1.4297 ± 0.0005 | – | – | – | – | –
[1], x1 = 0.951 | 1.4374 ± 0.0005 | 1.4361 ± 0.0005 | 1.4347 ± 0.0005 | 1.4329 ± 0.0005 | 1.4313 ± 0.0005 | – | – | – | – | –
[1], x1 = 1 | 1.4384 ± 0.0005 | 1.4371 ± 0.0005 | 1.4356 ± 0.0005 | 1.4341 ± 0.0005 | 1.4328 ± 0.0005 | – | – | – | – | –
[2], x1 = 0.103 | – | – | – | – | – | 3.36 ± 0.02 | 3.34 ± 0.02 | 3.32 ± 0.02 | 3.3 ± 0.02 | 3.28 ± 0.02
[2], x1 = 0.204 | – | – | – | – | – | 4.91 ± 0.02 | 4.85 ± 0.02 | 4.79 ± 0.02 | 4.72 ± 0.02 | 4.67 ± 0.02
[2], x1 = 0.301 | – | – | – | – | – | 6.73 ± 0.02 | 6.64 ± 0.02 | 6.54 ± 0.02 | 6.45 ± 0.02 | 6.38 ± 0.02
[2], x1 = 0.401 | – | – | – | – | – | 8.96 ± 0.02 | 8.82 ± 0.02 | 8.66 ± 0.02 | 8.52 ± 0.02 | 8.38 ± 0.02
[2], x1 = 0.451 | – | – | – | – | – | 10.17 ± 0.02 | 10 ± 0.02 | 9.83 ± 0.02 | 9.67 ± 0.02 | 9.5 ± 0.02
[2], x1 = 0.5 | – | – | – | – | – | 11.44 ± 0.02 | 11.23 ± 0.02 | 11.02 ± 0.02 | 10.85 ± 0.02 | 10.61 ± 0.02
[2], x1 = 0.548 | – | – | – | – | – | 12.76 ± 0.02 | 12.5 ± 0.02 | 12.25 ± 0.02 | 12.03 ± 0.02 | 11.77 ± 0.02
[2], x1 = 0.61 | – | – | – | – | – | 14.6 ± 0.03 | 14.3 ± 0.02 | 13.94 ± 0.02 | 13.63 ± 0.02 | 13.3 ± 0.02
[2], x1 = 0.699 | – | – | – | – | – | 17.46 ± 0.03 | 17.03 ± 0.03 | 16.58 ± 0.03 | 16.15 ± 0.03 | 15.73 ± 0.02
[2], x1 = 0.788 | – | – | – | – | – | 20.41 ± 0.03 | 19.88 ± 0.03 | 19.36 ± 0.03 | 18.88 ± 0.03 | 18.38 ± 0.03
[2], x1 = 0.897 | – | – | – | – | – | 24.35 ± 0.03 | 23.72 ± 0.03 | 23.02 ± 0.03 | 22.41 ± 0.03 | 21.79 ± 0.03
[2], x1 = 0.951 | – | – | – | – | – | 26.42 ± 0.04 | 25.72 ± 0.04 | 24.98 ± 0.04 | 24.29 ± 0.03 | 23.61 ± 0.03
[2], x1 = 1 | – | – | – | – | – | 28.52 ± 0.04 | 27.66 ± 0.04 | 26.77 ± 0.04 | 25.98 ± 0.04 | 25.22 ± 0.04
